Publication PMC1831776, “Structure and characterization of a novel chicken biotin-binding protein A (BBP-A)” (BMC Structural Biology, 2007)
Marks after values point to notes of the source that are not given here.

Columns and labels:
chicken AVD [1] = biological target: T1, chicken AVD (Gallus gallus, UniProt P02701); assay: DSC of AVD in the presence of ligand; type: binding
T1 construct: AVD isolated from chicken egg-white (wtAVD; Belovo S. A., Bastogne, Belgium); purchased Belovo S. A., Bastogne, Belgium; host or cells: chicken egg-white
Method: (§1) Differential scanning analysis was performed in 50 mM NaPO4 buffer (pH 7.0) containing 100 mM NaCl as previously described. The concentration of the analyzed proteins was between 0.2 and 0.6 mg/ml. In samples containing a ligand, the molar ligand concentration was three times as high as the protein subunit concentration. The samples were scanned from 25 to 130°C at a rate of 0.92°C/min.

bBBP-A [2] = biological target: T2, bBBP-A (Gallus gallus, UniProt E1BTQ4); assay: Fluorescence spectroscopy protein-ligand dissociation analysis; type: binding, chicken
T2 sequence (E1BTQ4 22-146): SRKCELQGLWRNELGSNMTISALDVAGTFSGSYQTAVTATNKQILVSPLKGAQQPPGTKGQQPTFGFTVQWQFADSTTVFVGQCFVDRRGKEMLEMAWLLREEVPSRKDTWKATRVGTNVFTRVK
Method: Fluorescence spectroscopy was also used to measure the rate of protein-ligand dissociation. These experiments were made at 40°C in order to measure the dissociation events within an experimentally applicable timescale. […] The measured spectral properties of each protein-ligand complex (i.e. the emission intensity of the protein-ligand complex) were used to create a single-phase dissociation model, which was fitted to the data.

chicken AVD [3] = biological target: T1, chicken AVD; assay: Isothermal titration calorimetry, AVD; type: binding; conditions: 25°C
Method: (§2) The energetics of biotin binding was determined with a VP-ITC (MicroCal™) Isothermal Titration Calorimeter. Measurements were performed at 25°C in degassed 50 mM NaPO4 buffer (pH 7.0) containing 100 mM NaCl. In order to calculate the enthalpies of binding (ΔH) for BBP-A and AVD, the cell used for measurements was filled with 30 μM protein solution. […] The data were analysed with Origin 7.0 software using the "One Set of Sites" method. The titration curve (heat change μcal/injection) resulting from the 15 injections was analysed by fitting the data to a nonlinear least square curve.

wtAVD = biological target: T3, wtAVD (Gallus gallus, UniProt P02701); assay: Intrinsic fluorescence emission spectra, AVD; type: binding, chicken; conditions: 100 nM protein, 200 nM ligand, 25°C, excitation 280 nm
T3 construct: AVD isolated from chicken egg-white (wtAVD; Belovo S. A., Bastogne, Belgium); purchased Belovo S. A., Bastogne, Belgium; host or cells: chicken egg-white
Method: (§3) The ligand-induced changes to the emission spectra of bBBP-A and wtAVD were studied, too (Figure 11). […] Compared to the ligand-free proteins, for each of the ligand-protein combinations the maximum in the emission spectra moved towards the shorter blue wavelengths.
(§4) In order to study the intrinsic fluorescence of the proteins, the emission spectra of bBBP-A and wtAVD in 50 mM NaPO4 buffer (pH 7.0) containing 650 mM NaCl were measured using a PerkinElmer LS55 spectrofluorometer and excitation at 280 nm (slit 2.5 nm). During the analysis, protein solutions (100 nM) were continuously mixed using an integrated magnetic stirrer and maintained at 25°C using a circulating water bath.

bBBP-A [4] = biological target: T2, bBBP-A; assay: Isothermal titration calorimetry, BBP-A; type: binding, chicken; conditions: for Enthalpy (ITC), BBP-A: 25°C
Method: as §2

bBBP-A [5] = biological target: T2, bBBP-A; assay: DSC of BBP-A in the presence of ligand; type: binding, chicken
Method: as §1

bBBP-A [6] = biological target: T2, bBBP-A; assay: Intrinsic fluorescence emission spectra, BBP-A; type: binding, chicken; conditions: 100 nM protein, 200 nM ligand, 25°C, excitation 280 nm
Method: as §3, §4

[7] = without BTN; ref [33]; cited from earlier work
[8] = set-up: method as in PMID 15324300; conditions: ref [30], cited from earlier work; for Tr +BTN: with BTN; for Tr -BTN: without BTN
[9] = Differential scanning calorimetry of the proteins; type: physicochemical, chicken; conditions: with BTN
Method: as §1

[10] = Dissociation of fluorescent biotin conjugate ArcDia BF560-biotin from the proteins; type: binding; conditions: 25°C
Method: (§5) The dissociation rate of [^3H]biotin from BBP-A was measured using a competitive dissociation assay (Figure 9; Table 2).
The dissociation rate of the fluorescent biotin conjugate ArcDia™ BF560-biotin (ArcDia Ltd., Turku, Finland) was measured as reported previously. The measurements were made at 25°C in 50 mM NaPO4 buffer (pH 7.0) containing 650 mM NaCl using a PerkinElmer LS55 luminometer.

[11] = biological target: chicken biotin-binding protein A expressed in insect cells (iBBP-A) (chicken); assay: SEC; gel filtration, Superdex 200 10/300 GL, 50 mM NaPO4, 650 mM NaCl, pH 7.0; samples without BTN and after 15 min with 0.22 mM BTN; apparent masses from standard proteins
[12] = biological target: chicken biotin-binding protein A expressed in insect cells (iBBP-A) (chicken); assay: SDS-PAGE-based thermostability assay; samples saturated with BTN; acetylated in vitro, thermal treatment 20 min in sample buffer with SDS and 2-mercaptoethanol, Coomassie staining
[13] = biological target: chicken biotin-binding protein A expressed in bacteria (bBBP-A) (chicken); assay: crystal structure; bBBP-A co-crystallised with BTN; two crystals, BBP-A - BTN (2.1 A, I4(1)22) and BBP-A - BSO (1.75 A, P2(1)2(1)2)
[14] = biological target: chicken biotin-binding protein A expressed in bacteria (bBBP-A) (chicken); assay: SEC; gel filtration, Superdex 200 10/300 GL, 50 mM NaPO4, 650 mM NaCl, pH 7.0; samples without BTN and after 15 min with 0.22 mM BTN; apparent masses from standard proteins
[15] = biological target: chicken biotin-binding protein A expressed in bacteria (bBBP-A) (chicken); assay: SDS-PAGE-based thermostability assay; samples saturated with BTN; acetylated in vitro, thermal treatment 20 min in sample buffer with SDS and 2-mercaptoethanol, Coomassie staining
bBBP-A [16] = biological target: T2, bBBP-A; assay: [3H]-biotin competitive dissociation analysis (ligand from BBP-A); type: binding, chicken; conditions: 40°C, [3H]-biotin dissociation analysis, excess of BTN as competitive ligand
Method: as §5
The dissociation rate of [^3H]biotin (Amersham) was measured at various temperatures with a competition assay as described previously. Measurements were carried out in 50 mM NaPO4 buffer containing 100 mM NaCl.

BBP-A = biological target: T4, BBP-A (Gallus gallus, UniProt E1BTQ4); assay: Biotin-binding affinity of BBP-A; set-up: species or system chicken
T4 sequence (E1BTQ4 22-146): T2 sequence (E1BTQ4 22-146)
Method: Background The chicken genome contains a BBP-A gene showing similar characteristics to avidin family genes. In a previous study we reported that the BBP-A gene may encode a biotin-binding protein due to the high sequence similarity with chicken avidin, especially at regions encoding residues known to be located at the ligand-binding site of avidin.
as §5

AVD = assay: Dissociation of BSO (fluorometric) versus BTN (radiobiotin) from AVD; type: binding, chicken; conditions: 50°C; BSO fluorometric analysis, BTN radiobiotin assay
[17] = 40°C, fluorescence spectroscopic analysis, excess of BTN as competitive ligand

T1 sequence (P02701 25-152): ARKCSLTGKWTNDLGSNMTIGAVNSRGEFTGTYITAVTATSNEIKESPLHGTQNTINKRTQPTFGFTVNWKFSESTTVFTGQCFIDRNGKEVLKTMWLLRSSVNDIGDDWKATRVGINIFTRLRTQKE
T3 sequence (P02701 25-152): as above

Which results are given for `O=C(O)CCCC[C@H]1[C@H]2NC(=O)N[C@H]2CS1(=O)=O` [D-biotin sulfone]?
Tm (DSC), AVD (chicken AVD [1]): 117.0 ± 0.0 °C; kdiss from BBP-A (bBBP-A [2]; [17]): 3.3^a × 10^-4 s^-1; Enthalpy (ITC), AVD (chicken AVD [3]): -25.1 ± 0.1 kcal/mol; ligand-induced change of emission intensity of AVD (wtAVD): increased the emission intensity; Enthalpy (ITC), BBP-A (bBBP-A [4]): -21.4 ± 0.1 kcal/mol; Tm (DSC), BBP-A (bBBP-A [5]): 101.4 ± 0.2 °C; ligand-induced change of emission intensity of BBP-A (bBBP-A [6]): enhanced the emission intensity

With “AVD: AVD isolated from chicken egg-white (Belovo S. A.), control protein” as the compound, how does the “Tm -BTN (DSC)” value [7] read?
Its value is 83.5^c °C.

And the “Tr +BTN” value [8]?
The value was 90^b °C.

And the “Tr -BTN” value [8]?
The value was 60^b °C.

And the “Tm +BTN (DSC)” value [9]?
The value was 117.0 °C.

What about the “kdiss, dissociation of fluorescent BTN” value [10] of the same compound?
Its value is 2.0 10^-5 s^-1.

And the “Release 1 h, dissociation of fluorescent BTN” value [10]?
Its value is 10%.

Which results are given for “chicken biotin-binding protein A expressed in insect cells (iBBP-A) (natural protein)”?
stoichiometry N [11]: 4; stoichiometry N [12]: 4

With “chicken biotin-binding protein A expressed in bacteria (bBBP-A) (natural protein)” as the compound, how does the stoichiometry N [13] read?
Its stoichiometry N is 4.

What about the stoichiometry N [14] of the same compound?
The stoichiometry N was 4.

What about the stoichiometry N [15] of the same compound?
Its stoichiometry N is 4.

For `O=C(O)CCCC[C@@H]1SC[C@@H]2NC(=O)N[C@@H]21` [BTN, D-biotin], which “Tm (DSC), AVD” value (chicken AVD [1]) is on record?
Its value is 117.0 ± 0.7 °C.

And the “kdiss from BBP-A” value (bBBP-A [16])?
Its value is 5.4^b (4.4^c) × 10^-4 s^-1.

What about the “kdiss from BBP-A” value (bBBP-A [2]) of the same compound?
Its value is 5.4^b (4.4^c) × 10^-4 s^-1.

And the “affinity of BBP-A for biotin, times lower than that of chicken avidin” value (BBP-A)?
Its value is “about 50 times”.

What about the “Enthalpy (ITC), AVD” value (chicken AVD [3]) of the same compound?
The value was -22.6 ± 0.1 kcal/mol.

What about the “ligand-induced change of emission intensity of AVD” value (wtAVD) of the same compound?
The value was “decreased the emission intensity”.

What about the Kd (bBBP-A [4]) of the same compound?
Its Kd is less than 1 nM.

And the “Enthalpy (ITC), BBP-A” value (bBBP-A [4])?
Its value is -20.5 ± 0.1 kcal/mol.

And the “Tm (DSC), BBP-A” value (bBBP-A [5])?
The value was 103.4 ± 0.1 °C.

And the “ligand-induced change of emission intensity of BBP-A” value (bBBP-A [6])?
Its value is “enhanced the emission intensity”.

Which “Tm (DSC), AVD” value (chicken AVD [1]) does the source give for `O=C(O)CCCC[C@H]1[C@H]2NC(=O)N[C@H]2C[S+]1[O-]` (stereo partly drawn) [BSO, D-biotin D-sulfoxide] here?
The value was 116.9 ± 0.2 °C.

What about the “kdiss from BBP-A” value (bBBP-A [2]; [17]) of the same compound?
The value was 1.3^a × 10^-4 s^-1.

And the “affinity of BBP-A for BSO compared with BTN” value (BBP-A)?
Its value is “even higher than the affinity for BTN”.

What about the “Enthalpy (ITC), AVD” value (chicken AVD [3]) of the same compound?
Its value is -29.3 ± 0.1 kcal/mol.

And the “ligand-induced change of emission intensity of AVD” value (wtAVD)?
Its value is “decreased the emission intensity”.

And the “Enthalpy (ITC), BBP-A” value (bBBP-A [4])?
Its value is -25.9 ± 0.1 kcal/mol.

What about the “dissociation rate from AVD, times higher in comparison to BTN” value (AVD) of the same compound?
The value was “more than 20 times”.

And the “Tm (DSC), BBP-A” value (bBBP-A [5])?
The value was 100.4 ± 0.2 °C.

What about the “ligand-induced change of emission intensity of BBP-A” value (bBBP-A [6]) of the same compound?
The value was “enhanced the emission intensity”.

Which results are given for “bAVD: AVD produced in E. coli, control protein”?
Tr +BTN [8]: 90^b °C; Tr -BTN [8]: 60^b °C; kdiss, dissociation of fluorescent BTN [10]: 1.1 10^-5 s^-1; Release 1 h, dissociation of fluorescent BTN [10]: 5%
